Values joined by “and” are separate entries in the source; they are usually repeats but may differ in a detail not shown here. Identical values can stand only once. Like-named read-outs stand apart in the source and are kept apart here.
Tests used:
[1] = system: procollagen I; assay: Procollagen I secretion in coculture of human aged fibroblasts and mature adipocytes (ELISA); format: cell-based; conditions: for secretion of Procollagen I, normalized by fibroblasts number, in percentage of the coculture control condition, Values: individual replicates
Text: In order to evaluate its effect on fibroblast matrix and its anti-inflammatory properties, the effect of compound 6 has been tested on an adipocytes-aged fibroblasts coculture model, mimicking the interactions between dermis and hypodermis in the skin and allowed to explore in parallel the biological effects of the products on two cellular targets.
• Experimental model: co-culture of human mature adipocytes cultured in 3D and human dermal fibroblasts cultured in 2D (AM3D-FB2D co-culture). This experimental model of AM3D-FB2D co-culture mimicked the interactions between dermis and hypodermis in the skin and allowed to explore in parallel the biological effects of the products on two cellular targets. • Donor characteristics: This study was performed on mature adipocytes and fibroblasts from two different donors (one donor for mature adipocytes and another donor for dermal fibroblasts). • Fibroblasts donor=person, BMI=28 kg/m^2 • Adipocytes donor=person, BMI=21.4 kg/m^2 • Treatment procedure: compound 6 was added to the co-culture medium daily for up to 6 days
Dermal fibroblasts were seeded in DMEM 10% FBS at 10000 cells/well. The day after, the adipocytes capsules of 50 μl were added in suspension above the fibroblasts and the medium was changed and replaced by a specific culture medium for the co-culture AM3D-FB2D. The formation of adipocytes capsules followed an internal standardized protocol. Briefly, the fully mature adipocytes were isolated from the hypodermis after digestion by collagenase. The isolated adipocytes were then washed with a wash buffer and encapsulated in a peptidic hydrogel to form 3D adipocytes capsules of 50 μl in size. Cells were incubated at 37° C. and 5% CO2 overnight for stabilization. Treatments were initiated at DO with a medium change at DO, D2, D3 and D5. The entire culture media of 24 h incubation was collected at D3 and D6, before being centrifugated and stored at −80° C. Each culture condition was done in triplicate.
The biochemical analyses on culture media were performed via ELISA using specific kits according to the manufacturer's recommendations: IL-6 (Duoset DY206, R&D Systems), and Hyaluronic Acid (HA) (Duoset, DY3614-05, R&D Systems and Procollagen I (Duoset, DY6220-05, R&D Systems) The results of HA and Procollagen I were normalized by fibroblasts cell number regarding the fact that these molecules were secreted mainly by fibroblasts. All the biochemical results were represented in percentage of the control condition.
To evaluate the effect of the compound 6 on fibroblasts' matrix, the extracellular concentrations of Procollagen I, that is secreted only by the fibroblasts, were measured at D3 and D6.

[2] = system: normal human dermal fibroblasts (NHDF); assay: Protection of NHDF under UVA irradiation, MTT reduction assay; format: cell-based
Description: The protective effects of compound 6 was assessed in normal human dermal fibroblasts (NHDF). The viability of UVA-irradiated NHDF using a standard MTT reduction assay was tested. Prior to these assays, a preliminary cytotoxicity assay was performed on NHDF, using a standard WST-8 reduction assay and morphological observations with a microscope, in order to determine the concentrations to be tested.
• Cell type: NHDF, Bioalternatives reference PF2 used at the 8th passage • Culture conditions: 37° C., 5% CO2 • Culture medium: DMEM supplemented with L-glutamine 2 mM, Penicillin 50 U/ml • Streptomycin 50 μg/ml, Fetal calf serum (FCS) 10% • Irradiation medium: EBSS supplemented with CaCl2 0.2 g/l, MgSO4 0.2 g/l • Test compound: the compound 6 (MM=356.3 g/mol) was diluted in culture medium at final concentration of 1.25 and 2.5 mg/ml
Fibroblasts were seeded in 96-well plates and cultured in culture medium for 24 hours. The medium was then replaced by culture medium containing or not (irradiated control) the test compounds and the cells were pre-incubated for 24 hours. After pre-incubation, the medium was removed and replaced by irradiation medium and the cells were irradiated with 35 J/cm^2. The lamp used was a SOL500 Sun Simulator equipped with an H1 filter (Dr. Hönle, AG). After irradiation, the medium was removed and replaced by assay medium containing or not (irradiated control) the test compounds and the cells were incubated for 24 hours. A non-irradiated control condition was performed in parallel. All experimental conditions were performed in n=5, except for the control conditions in n=12.
At the end of incubation, the cells were incubated with MTT (tetrazolium salt) reduced in blue formazan crystals by succinate dehydrogenase (mitochondrial enzyme). This transformation is proportional to the enzyme activity. After cell dissociation and formazan crystal solubilization using DMSO, the optical density (OD) of the extracts at 540 nm, proportional to the number of living cells and their metabolic activity, was recorded with a microplate reader (VERSAmax, Molecular Devices).
Raw data were analyzed using Microsoft Excel© software. The inter-group comparisons were performed by an unpaired Student's t-test.
The standard error of the mean (sem) is a measure of how far the sample mean is likely to be from the true population mean. The sem is calculated as the standard deviation (sd) divided by the square root of sample size (n). Standard error of the mean: sem=sd/√n Percentage of viability: viability (%)=(OD sample/OD control)×100
The cell viability (OD 540 nm) from irradiated culture added with tested compound was compared with irradiated control culture and the percentage of viability was calculated.

N[C@H]1CCCN(CC(F)(F)[C@]2(O)O[C@H](CO)[C@H](O)[C@H](O)[C@H]2O)C1=O [Compound 6]
secretion of Procollagen I, normalized by fibroblasts number, in percentage of the coculture control condition, Mean ([1]; D3, 1 mg/ml): 163% | secretion of Procollagen I, normalized by fibroblasts number, in percentage of the coculture control condition, Values ([1]; D3, 1 mg/ml): 162% and 158% and 168% | secretion of Procollagen I, normalized by fibroblasts number, in percentage of the coculture control condition, Mean ([1]; D3, 2 mg/ml): 159% | secretion of Procollagen I, normalized by fibroblasts number, in percentage of the coculture control condition, Values ([1]; D3, 2 mg/ml): 177% and 144% and 157% | secretion of Procollagen I, normalized by fibroblasts number, in percentage of the coculture control condition, Mean ([1]; D3, 3 mg/ml): 173% | secretion of Procollagen I, normalized by fibroblasts number, in percentage of the coculture control condition, Values ([1]; D3, 3 mg/ml): 202% and 78% and 238% | secretion of Procollagen I, normalized by fibroblasts number, in percentage of the coculture control condition, Mean ([1]; D6, 1 mg/ml): 418% | secretion of Procollagen I, normalized by fibroblasts number, in percentage of the coculture control condition, Values ([1]; D6, 1 mg/ml): 312% and 472% and 469% | secretion of Procollagen I, normalized by fibroblasts number, in percentage of the coculture control condition, Mean ([1]; D6, 2 mg/ml): 411% | secretion of Procollagen I, normalized by fibroblasts number, in percentage of the coculture control condition, Values ([1]; D6, 2 mg/ml): 284% and 488% and 460% | secretion of Procollagen I, normalized by fibroblasts number, in percentage of the coculture control condition, Mean ([1]; D6, 3 mg/ml): 474% | secretion of Procollagen I, normalized by fibroblasts number, in percentage of the coculture control condition, Values ([1]; D6, 3 mg/ml): 515% and 398% and 508% | Mean OD (540 nm) ([2]; 1.25 mg/ml, UVA 35 J/cm^2, MTT): 0.13 | Mean OD (540 nm) ([2]; 2.5 mg/ml, UVA 35 J/cm^2, MTT): 0.15 | viability at 1250 µg/mL ([2]; Homo sapiens, light or radiation study, 1.25 mg/ml, UVA 35 J/cm^2, MTT, read-out: % Irradiated control (viability)): 116% | viability at 2500 µg/mL ([2]; Homo sapiens, light or radiation study, 2.5 mg/ml, UVA 35 J/cm^2, MTT, read-out: % Irradiated control (viability)): 130% | viability at 2500 µg/mL ([2]; Homo sapiens, light or radiation study, UVA 35 J/cm2, 2.5 mg/ml, read-out: Cell viability, % of the irradiated control): 130%

Reference: patent US20240124510A1, “Cyclic Glycoaminoacid Derivatives” (TFCHEM, priority 2021, published 2024)
